For 39 molecules, melting point results are on record in patent US9617244B2, “Antibacterial quinoline derivatives” (JANSSEN PHARMACEUTICA NV, priority 2012, dated 2017).

A word on the melting point: it is the temperature, or range, at which the solid turns liquid.

Counter-ions that a name gives are not always drawn.

In turn, `COc1nc2ccc(SC)cc2cc1C(c1ccc(Cl)cc1)C1(O)CCNC(CC2CCCCC2)C1` (stereo not drawn) (as salt: fumarate) [Compound 288] registered a melting point of 150 °C. For `COc1nc2ccc(F)cc2cc1C(c1ccc(Cl)cc1)C1(O)CCNC(c2ccc(F)cc2C)C1` (stereo not drawn) (as salt: fumarate) [Compound 330], the melting point worked out at 170 °C. Consider `COc1nc2ccc(F)cc2cc1C(c1ccc(Cl)cc1)C1(O)CCNC(c2ccc(F)cc2C)C1` (stereo not drawn) (as salt: fumarate) [Compound 331], for which the melting point was determined as 166 °C. As for `COc1nc2ccc(F)cc2cc1C(c1ccc(Cl)cc1)C1(O)CCNC(c2ccc(F)cc2C)C1` (stereo not drawn) (as salt: fumarate) [Compound 332], the figure is 164 °C; as for `COc1nc2ccc(Cl)cc2cc1C(c1ccc(Cl)cc1)C1(O)CCNC(Cc2ccc(F)cc2)C1` (stereo not drawn) (as salt: fumarate) [Compound 345], 152 to 154 °C; as for `COc1nc2ccc(Cl)cc2cc1C(c1ccc(Cl)cc1)C1(O)CCNC(Cc2ccc(F)cc2)C1` (stereo not drawn) (as salt: fumarate) [Compound 346], 151 to 153 °C. As for `COc1nc2ccc(Cl)cc2cc1C(c1ccc(Cl)cc1)C1(O)CCNC(Cc2ccc(F)cc2)C1` (stereo not drawn) (as salt: fumarate) [Compound 347], the figure is 148 to 150 °C; as for `COc1nc2ccc(Cl)cc2cc1C(c1ccc(Cl)cc1)C1(O)CCNC(Cc2ccc(F)cc2)C1` (stereo not drawn) (as salt: fumarate) [Compound 348], 145 °C; as for `COc1nc2ccc(Cl)cc2cc1C(c1ccc(SC)cc1)C1(O)CCNC(c2ccc(F)cc2C)C1` (stereo not drawn) (as salt: fumarate) [Compound 353], 166 to 168 °C. With `COc1nc2ccc(Cl)cc2cc1C(c1ccc(SC)cc1)C1(O)CCNC(c2ccc(F)cc2C)C1` (stereo not drawn) (as salt: fumarate) [Compound 354], the melting point fell in the range of 168 to 170 °C.

`COc1nc2ccc(Cl)cc2cc1C(c1ccc(S(C)(=O)=O)cc1)C1(O)CCNC(c2ccc(F)cc2C)C1` (stereo not drawn) (as salt: fumarate) [Compound 368] had a melting point of 144 °C. For `COc1nc2ccc(Cl)cc2cc1C(c1ccc(S(C)(=O)=O)cc1)C1(O)CCNC(c2ccc(F)cc2C)C1` (stereo not drawn) (as salt: fumarate) [Compound 369], the melting point stood at 138 °C. For the molecule `COc1nc2ccccc2cc1C(c1ccccc1)C1(O)CCNC(Cc2ccccc2)C1` (stereo not drawn) (as salt: fumarate) [Compound 399], the melting point fell in the range of 222 to 224 °C. With `COc1nc2ccccc2cc1C(c1ccccc1)C1(O)CCNC(Cc2ccccc2)C1` (stereo not drawn) (as salt: fumarate) [Compound 400], the melting point was determined as 157 °C. The value for `COc1nc2ccccc2cc1C(c1ccccc1)C1(O)CCNC(Cc2ccccc2)C1` (stereo not drawn) (as salt: fumarate) [Compound 401] was 240 °C; that for `COc1nc2ccccc2cc1C(c1ccccc1)C1(O)CCNC(Cc2ccccc2)C1` (stereo not drawn) (as salt: fumarate) [Compound 402] was 175 to 177 °C; that for `COc1nc2ccc(Cl)cc2cc1C(c1ccc(Cl)cc1)C1(O)CCNC(c2ccccc2)C1` (stereo not drawn) (as salt: fumarate) [Compound 403] was 176 °C. `COc1nc2ccc(Cl)cc2cc1C(c1ccc(Cl)cc1)C1(O)CCNC(c2ccccc2)C1` (stereo not drawn) (as salt: fumarate) [Compound 404] yielded a melting point of 168 °C. `COc1nc2ccc(Cl)cc2cc1C(c1ccc(Cl)cc1)C1(O)CCNC(c2ccccc2)C1` (stereo not drawn) (as salt: fumarate) [Compound 405] displayed a melting point of 184 °C. As for `COc1ccc2nc(OC)c(C(c3ccccc3)C3(O)CCNC(Cc4ccccc4)C3)cc2c1` (stereo not drawn) (as salt: fumarate) [Compound 408], the figure is 135 °C; as for `COc1nc2ccc(Cl)cc2cc1C(c1ccc(Cl)cc1)C1(O)CCNCC1c1ccccc1` (stereo not drawn) (as salt: fumarate) [Compound 409], 190 °C.

Turning to `COc1nc2ccc(Cl)cc2cc1C(c1ccc(Cl)cc1)C1(O)CCNCC1c1ccccc1` (stereo not drawn) (as salt: fumarate) [Compound 410], the melting point is 155 °C. For the molecule `COc1nc2ccc(Cl)cc2cc1C(c1ccc(Cl)cc1)C1(O)CCNCC1c1ccccc1` (stereo not drawn) (as salt: fumarate) [Compound 411], the melting point stood at 168 °C. For the molecule `COc1nc2ccc(Cl)cc2cc1C(c1ccc(Cl)cc1)C1(O)CCNCC1c1ccccc1` (stereo not drawn) (as salt: fumarate) [Compound 412], the melting point is 166 °C.

On to `COc1nc2ccccc2cc1C(c1ccccc1)C1(O)CCNC(c2ccccc2)C1` (stereo not drawn) (as salt: fumarate) [Compound 413], for which the melting point was > 250 °C. `COc1nc2ccccc2cc1C(c1ccccc1)C1(O)CCNC(c2ccccc2)C1` (stereo not drawn) (as salt: fumarate) [Compound 414] registered a melting point of 196 °C. Turning to `COc1nc2ccccc2cc1C(c1ccccc1)C1(O)CCNC(c2ccccc2)C1` (stereo not drawn) (as salt: fumarate) [Compound 415], the melting point stood at 160 °C. For the molecule `COc1nc2ccccc2cc1C(c1ccccc1)C1(O)CCNC(c2ccc(F)cc2C)C1` (stereo not drawn) (as salt: fumarate) [Compound 416], the melting point was in the range of 160 to 162 °C. `COc1nc2ccc(F)cc2cc1C(c1ccc(S(C)(=O)=O)cc1)C1(O)CCNC(c2ccc(F)cc2C)C1` (stereo not drawn) (as salt: fumarate) [Compound 418] displayed a melting point of 164 to 166 °C. Molecule `COc1nc2ccc(Br)cc2cc1C(c1cccnc1)C1(O)CCNC(Cc2ccccc2)C1` (stereo not drawn) (as salt: fumarate) [Compound 427] returned a melting point of 174 °C.

In turn, `COc1nc2ccc(Br)cc2cc1C(c1cccnc1)C1(O)CCNC(Cc2ccccc2)C1` (stereo not drawn) (as salt: fumarate) [Compound 428] displayed a melting point of 217 °C. On to `COc1nc2ccc(Br)cc2cc1C(n1cccn1)C1(O)CCNC(Cc2ccccc2)C1` (stereo not drawn) (as salt: fumarate) [Compound 429], for which the melting point is > 260 °C. As for `COc1nc2ccc(Cl)cc2cc1C(c1ccc(Cl)cc1)C1(O)CCNC(c2ccc3ccccc3c2)C1` (stereo not drawn) (as salt: fumarate) [Compound 430], the figure is 184 °C. The value for `COc1nc2ccc(Cl)cc2cc1C(c1ccc(Cl)cc1)C1(O)CCNC(c2ccc3ccccc3c2)C1` (stereo not drawn) (as salt: fumarate) [Compound 431] was 178 °C. As for `COc1nc2ccc(Cl)cc2cc1C(c1ccc(Cl)cc1)C1(O)CCNC(c2ccc3ccccc3c2)C1` (stereo not drawn) (as salt: fumarate) [Compound 432], the figure is 167 °C; as for `COc1nc2ccccc2cc1C(c1ccccc1)C1(O)CCNC(c2ccc(F)cc2C)C1` (stereo not drawn) (as salt: fumaric acid salt) [Compound 16], 166 to 168 °C.

On to `O=c1[nH]c2ccc(Br)cc2cc1C(c1ccc(Cl)cc1)C1(O)CCNC(Cc2ccc(F)c(F)c2)C1` (stereo not drawn) (as salt: hydrochloride) [Compound 40], for which the melting point amounted to 224 °C. `O=c1[nH]c2ccc(Br)cc2cc1C(c1ccc(Cl)cc1)C1(O)CCNCC1Cc1cccc(F)c1` (stereo not drawn) (as salt: hydrochloride) [Compound 49]: the melting point amounted to 183 °C. For `O=c1[nH]c2ccc(Br)cc2cc1C(c1cccc(Cl)c1)C1(O)CCNC(Cc2ccccc2)C1` (stereo not drawn) (as salt: hydrochloride) [Compound 85], the melting point was > 260 °C.
